# Like-named read-outs stand apart in the source and are kept apart here.
# How the values were obtained:
# [1] = target: T1, CB2 receptor (Mus musculus, UniProt P47936); assay: CB2 receptor binding assay ([3H] CP-55,940 displacement, mouse spleen membranes)
# T1 construct: membranes were prepared from frozen mouse spleen; from tissue; host or cells: frozen mouse spleen membranes
# Experimental: The treated membranes were subsequently used in the binding assay described below. Approximately 30 μg of membranes were incubated in silanized 96-well microtiter plate with TME containing 0.1% essentially fatty acid-free bovine serum albumin (BSA), 0.8 nM [^3H] […] Radioactivity was detected using MicroScint 20 scintillation cocktail added directly to the dried filterplates, and the filterplates were counted using a Packard Instruments Top-Count. […] Data collected from three independent experiments performed with duplicate determinations was normalized between 100% and 0% specific binding for [^3H] […] The normalized data was analyzed using a 4-parameter nonlinear logistic equation to yield IC50 values.
# Silanized centrifuge tubes were used throughout to minimize receptor loss due to adsorption. The CB2 binding assay was conducted in the same manner as for the CB1 binding assay. The binding affinities (Ki) were also expressed in nanomoles (nM).
# [2] = target: T2, CB1 cannabinoid receptor (Rattus norvegicus, UniProt P20272); assay: CB1 receptor binding assay ([3H] CP-55,940 displacement, rat forebrain membranes); conditions: 0.8 nM [3H] CP-55,940, read-out: CB1 (nM) binding affinity (Ki)
# T2 construct: membranes were prepared from rat forebrain membranes; from tissue; host or cells: rat forebrain membranes
# T2 sequence (P20272 whole entry): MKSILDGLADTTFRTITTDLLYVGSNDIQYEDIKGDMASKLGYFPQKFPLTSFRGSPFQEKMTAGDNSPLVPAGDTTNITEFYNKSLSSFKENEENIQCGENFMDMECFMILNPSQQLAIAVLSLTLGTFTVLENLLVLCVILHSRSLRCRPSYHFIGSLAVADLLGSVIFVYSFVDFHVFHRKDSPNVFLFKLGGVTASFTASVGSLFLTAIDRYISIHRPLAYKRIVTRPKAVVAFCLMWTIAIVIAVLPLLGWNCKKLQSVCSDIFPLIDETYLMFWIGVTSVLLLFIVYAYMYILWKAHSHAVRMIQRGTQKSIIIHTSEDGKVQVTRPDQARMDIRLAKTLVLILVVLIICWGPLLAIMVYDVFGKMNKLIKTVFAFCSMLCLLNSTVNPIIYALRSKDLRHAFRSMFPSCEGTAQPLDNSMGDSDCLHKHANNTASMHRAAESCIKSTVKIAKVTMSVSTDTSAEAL
# Experimental: Some inventive analogs were tested for CB2 receptor binding affinity and for CB1 receptor affinity (to determine selectivity). As used herein, “binding affinity” is represented by the Ki value which is the inhibition constant correlated with the concentration of an analog required to occupy the 50% of the total number (Bmax) of the receptors. The lower the Ki value, the higher the binding affinity. […] For the CB1 receptor binding studies, membranes were prepared from rat forebrain membranes according to the procedure of P. R. Dodd et al, A Rapid Method for Preparing Synaptosomes: Comparison with Alternative Procedures, Brain Res., 107-118 (1981). The binding of the novel analogues to the CB1 cannabinoid receptor was assessed as described in W. A. Devane et al, Determination and Characterization of a Cannabinoid Receptor in a Rat Brain, Mol. Pharmacol., 34, 605-613 (1988) and A. Charalambous et al, 5′-azido Δ^8-THC: A Novel Photoaffinity Label for the Cannabinoid Receptor, J. Med. Chem., 35, 3076-3079 (1992) with the following changes. The above articles are incorporated by reference herein.
# Membranes, previously frozen at −80° C., were thawed on ice. To the stirred suspension was added three volumes of TME (25 mM Tris-HCl buffer, 5 mM MgCl2 and 1 mM EDTA) at a pH 7.4. The suspension was incubated at 4° C. for 30 min. At the end of the incubation, the membranes were pelleted and washed three times with TME.
# The treated membranes were subsequently used in the binding assay described below. Approximately 30 μg of membranes were incubated in silanized 96-well microtiter plate with TME containing 0.1% essentially fatty acid-free bovine serum albumin (BSA), 0.8 nM [^3H] CP-55,940, and various concentrations of test materials in a final volume of 200 μL. The assays were incubated for 1 hour at 30° C. and then immediately filtered using Packard Filtermate 196 harvester and Whatman GF/C filterplates and washed with wash buffer (TME) containing 0.5% BSA. Radioactivity was detected using MicroScint 20 scintillation cocktail added directly to the dried filterplates, and the filterplates were counted using a Packard Instruments Top-Count. Nonspecific binding was assessed using 100 nM CP-55,940. Data collected from three independent experiments performed with duplicate determinations was normalized between 100% and 0% specific binding for [^3H] CP-55,940, determined using buffer and 100 nM CP-55,940. The normalized data was analyzed using a 4-parameter nonlinear logistic equation to yield IC50 values. Data from at least two independent experiments performed in duplicate was used to calculate IC50 values which were converted to Ki values using the assumptions of Cheng et al, Relationship Between the Inhibition Constant (Ki) and the concentration of Inhibitor which causes 50% Inhibition (IC50) of an Enzymatic Reaction, Biochem. Pharmacol., 22, 3099-3102, (1973), which is incorporated by reference herein.
# [3] = mouse spleen membranes, [3H] CP-55,940, read-out: CB2 (nM) binding affinity (Ki)
# T1 sequence (P47936 whole entry): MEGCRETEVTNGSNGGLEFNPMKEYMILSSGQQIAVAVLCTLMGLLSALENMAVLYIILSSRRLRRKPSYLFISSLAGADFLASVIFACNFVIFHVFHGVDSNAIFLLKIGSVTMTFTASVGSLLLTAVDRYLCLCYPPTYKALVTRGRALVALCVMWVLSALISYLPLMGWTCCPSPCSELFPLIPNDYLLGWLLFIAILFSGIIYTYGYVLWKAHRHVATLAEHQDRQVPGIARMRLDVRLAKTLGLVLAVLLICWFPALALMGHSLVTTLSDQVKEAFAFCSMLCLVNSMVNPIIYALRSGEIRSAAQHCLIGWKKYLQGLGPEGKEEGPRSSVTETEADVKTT
SMILES,"Ki [1, 3] [nM]",Ki [2] [nM],Ki [1] [nM]
CCCCCCC(C)(C)c1cc(O)c(-c2cc(O)ccc2CCCO)c(O)c1 [Compound 25],1,12.2,–
CCCCCCC(C)(C)c1cc(O)c(-c2c(F)cccc2F)c(O)c1 [Compound 8],13.4,40.3,–
CCCCCCC(C)(C)c1cc(O)c(-c2cc([N+](=O)[O-])cc([N+](=O)[O-])c2)c(O)c1 [Compound 3],3.5,199,–
CCCCCCC(C)(C)c1cc(O)c(-c2ccccc2CO)c(O)c1 [Compound 14],1.4,53.8,–
CCCCCCC(C)(C)c1cc(O)c(-c2cc(C(F)(F)F)cc(C(F)(F)F)c2)c(O)c1 [Compound 2],0.9,9.7,–
CCCCCCC(C)(C)c1cc(O)c(-c2c(Cl)ccc(Cl)c2Cl)c(O)c1 [Compound 9],–,23.2,3.4
CCCCCCC(C)(C)c1cc(O)c(-c2cc(C)c(OC)c(C)c2)c(O)c1 [Compound 11],12.8,1080,–
CCCCCCC(C)(C)c1cc(O)c(-c2cc(F)ccc2CO)c(O)c1 [Compound 26],1.8,24.5,–
CCCCCCC(C)(C)c1cc(O)c(-c2cccc(C#N)c2)c(O)c1 [Compound 31],1.1,20,–
CCCCCCC(C)(C)c1cc(O)c(-c2cc(CO)ccc2CO)c(O)c1 [Compound 27],2.6,29.6,–
CCCCCCC(C)(C)c1cc(O)c(-c2cc(C)c(O)c(C)c2)c(O)c1 [Compound 10],15.3,1360,–
CCCCCCC(C)(C)c1cc(O)c(-c2cc(C)c(N)c(C)c2)c(O)c1 [Compound 12],8,797,–
CCCCCCC(C)(C)c1cc(O)c(-c2cc(Cl)cc(Cl)c2)c(OC)c1 [Compound 7],13.9,105,–
CCCCCCC(C)(C)c1cc(O)c(-c2cc(Cl)cc(Cl)c2)c(O)c1 [Compound 1],0.6,2.6,–
CCCCCCC(C)(C)c1cc(O)c(-c2ccc(C(=O)OCC)o2)c(O)c1 [Compound 29],–,3220,35.4
CCCCCCC(C)(C)c1cc(O)c(-c2cccc(C(C)=O)c2)c(O)c1 [Compound 24],–,297,11.3
CCCCCCCN(C)c1cc(O)c(-c2cc(OC)ccc2C(=O)N(C(C)C)C(C)C)c(OC)c1 [Compound 36],–,1870,154
CCCCCCC(C)(C)c1cc(O)c(-c2cc(F)cc(F)c2)c(O)c1 [Compound 4],8.4,57.5,–
CCCCCCC(C)(C)c1cc(O)c(-c2cc(O)ccc2CO)c(O)c1 [Compound 15],–,141,4.5
CCCCCCC(C)(C)c1cc(O)c(-c2cncc(C(=O)OCC)c2)c(O)c1 [Compound 21],–,17.2,0.2
CCCCCCC(C)(C)c1cc(O)c(-c2cc(C)ccc2F)c(O)c1 [Compound 5],2.3,6.5,–
CCCCCCC(C)(C)c1cc(O)c(-c2cccc(/C=C/C(=O)OCC)c2)c(O)c1 [Compound 30],10,397,–
CCCCCCC(C)(C)c1cc(O)c(-c2cccc(C(=O)OCC)c2)c(O)c1 [Compound 22],0.8,241,–
CCCCCCC(C)(C)c1cc(O)c(-c2cc(Br)ccc2CO)c(O)c1 [Compound 32],–,8.6,0.7
CCCCCCC(C)(C)c1cc(O)c(-c2cc(CO)ccc2C)c(O)c1 [Compound 28],7,70.4,–
CCCCCCC(C)(C)c1cc(O)c(-c2cc(Cl)ccc2Cl)c(O)c1 [Compound 6],2.6,7.7,–

# Reference: US20040087590A1, “Novel biphenyl and biphenyl-like cannabinoids” (University of Connecticut, priority 2002, published 2004)
